Assay results published in patent US20220225616A1, “Antifungal Wallboards” (LANXESS Deutschland GmbH, priority 2019, published 2022).
Entries after “also recorded” stand apart in the source; their conditions may differ.

How the values were obtained:
[1] = test system: Fungi Mix: standard ASTM G 21-09 species extended by Fusarium solani and Aspergillus hiratsukae; experiment: Gypsum board hand sheet efficacy testing (core protection), ASTM G 21-09; conditions: for Fungal growth rating, Fungi Mix: in gypsum core, 4 weeks at 28-30° C.; for Overall efficacy in gypsum board test, in words: tested concentration range 25-300 ppm, interpretation of tables 2 and 3
Description: (§1) For examination of the antifungal performance of the TBZ/BBIT combinations testing directly in gypsum boards provides realistic and practically relevant data for evaluation. […] For this purpose, a typical slurry recipe as given below for board production is used. Gypsum Board recipe:
(§2) The slurry is formed by mixing the dry components and the wet components together. The slurry is then mixed to achieve a homogeneous consistency. The fungicides are incorporated during preparation of the gypsum slurry by adding and mixing the fungicidal mixtures. For sandwiching the gypsum core, untreated cardboard (without fungicide) with a grammage of appr. 180 g/m^2 was used and after assembly of the plate the hand sheets are dried. The following antifungal compounds and respective formulations were used: • Thiabendazole • Butylbenzthiazole
(§3) For efficacy testing a test method of ASTM G 21 of 2009 was applied. As only change additional to the fungi mix as required by ASTM G 21-09, Fusarium solani and Aspergillus hiratsukae were included as further components of the mixed inoculum. According to this method, the manufactured gypsum boards as described above and after having been cut to an adequate size are placed on an agarplate and superficially are spoiled with fungal spores for a determined period of time of at the most 4 weeks. The respective total amount of actives in ppm based in gypsum/plaster (CaSO4(0.5 H2O) can be seen in the table.
(§4) Spore suspensions are produced for each fungi (spore concentrations of approximately 10^6/ml). Organisms which are included in ASTM G 21 comprise Aspergillus niger (ATCC 9642), Aureobasidium pullulans (ATCC 15233) Chaetomium globosum (ATCC 6205), Gliocladium virens (ATCC 6459) and Penicillium pinophilium (ATCC 11797) (as pure culture but also as mixed inoculum), however any other fungi species known to be able to grow in gypsum boards may be used in addition or instead. Mineral agar (according to ASTM G21 of 2009) was used as growth media in the agar plates. Before inoculation the gypsum board hand sheets are cut into pieces of appr. 5×5 cm.
(§5) For every concentration level, 3 test pieces are used in the test. Each sample is placed in a separate petri dish and then inoculated with the fungi. The samples are then incubated at 28-30° C. for 28 days. Pre-reading of the samples may be performed at approximately 10 days after inoculation. The activity of the treatments may be assessed visually, using a rating system of 0-4 for growth inhibition of fungal growth.
(§6) The reported results are recorded after 4 weeks testing at 28-30° C. according to the requirements of test method ASTM G 21 can be seen from Table 2: […]

[2] = test system: Stachybotris chartarum; experiment: as above; conditions: in gypsum core, 4 weeks at 28-30° C.
Description: as §1, §2, §3, §4, §5, §6

[3] = 25 ppm total actives based on gypsum/plaster
[4] = 50 ppm total actives based on gypsum/plaster
[5] = 100 ppm total actives based on gypsum/plaster
[6] = 200 ppm total actives based on gypsum/plaster
[7] = 300 ppm total actives based on gypsum/plaster

| Compound | Fungal growth rating, Fungi Mix [1, 3] | Fungal growth rating, Fungi Mix [1, 4] | Fungal growth rating, Fungi Mix [1, 5] | Fungal growth rating, Fungi Mix [1, 6] | Fungal growth rating, Fungi Mix [1, 7] | Overall efficacy in gypsum board test, in words [1] | Fungal growth rating, Stachybotris [2, 3] | Fungal growth rating, Stachybotris [2, 4] | Fungal growth rating, Stachybotris [2, 5] | Fungal growth rating, Stachybotris [2, 6] | Fungal growth rating, Stachybotris [2, 7] |
| --- | --- | --- | --- | --- | --- | --- | --- | --- | --- | --- | --- |
| CO/C=C(/C(=O)OC)c1ccccc1Oc1cc(Oc2ccccc2C#N)ncn1 [AZO, Azoxystrobin] | 4 (Heavy growth (60% to complete coverage)) | 4 (Heavy growth (60% to complete coverage)) | 4 (Heavy growth (60% to complete coverage)) | 4 (Heavy growth (60% to complete coverage)) | 4 (Heavy growth (60% to complete coverage)) | neither TBZ nor AZO alone are good enough to pass the ASTM G 21 test | 4 (Heavy growth (60% to complete coverage)) | 4 (Heavy growth (60% to complete coverage)) | 4 (Heavy growth (60% to complete coverage)) | 4 (Heavy growth (60% to complete coverage)) | 4 (Heavy growth (60% to complete coverage)) |
| CCCCn1sc2ccccc2c1=O [BBIT, 2-butyl-1,2-benzisothiazolin-3-one] | 4 (Heavy growth (60% to complete coverage)) | 4 (Heavy growth (60% to complete coverage)) | 4 (Heavy growth (60% to complete coverage)) | 2 (Light growth (10 to 30%)) | 1 (Traces of growth (less than 10%)) | better than TBZ, however still not fully satisfactory | 4 (Heavy growth (60% to complete coverage)) | 4 (Heavy growth (60% to complete coverage)) | 4 (Heavy growth (60% to complete coverage)) | 2 (Light growth (10 to 30%)) | 1 (Traces of growth (less than 10%)) |
| c1ccc2[nH]c(-c3cscn3)nc2c1 [TBZ, thiabendazole] | 4 (Heavy growth (60% to complete coverage)) | 4 (Heavy growth (60% to complete coverage)) | 4 (Heavy growth (60% to complete coverage)) | 4 (Heavy growth (60% to complete coverage)) | 3 (Medium growth (30 to 60%)) | not good enough for control of fungi growth; also recorded: neither TBZ nor AZO alone are good enough to pass the ASTM G 21 test | 4 (Heavy growth (60% to complete coverage)) | 4 (Heavy growth (60% to complete coverage)) | 4 (Heavy growth (60% to complete coverage)) | 4 (Heavy growth (60% to complete coverage)) | 3 (Medium growth (30 to 60%)) |
